Data from ChEMBL document CHEMBL3232809, “Synthesis, antibiotic activity and structure-activity relationship study of some 3-enaminetetramic acids” (2014).
Values after ≈ are worked out from the molar mass of the structure shown.

Experiments:
Type in all cases: functional
Streptococcus pneumoniae [1] = assay: Antimicrobial activity against penicillin- and erythromycin-resistant Streptococcus pneumoniae in presence of 2.5% horse blood
Pseudomonas aeruginosa = assay: Antimicrobial activity against Pseudomonas aeruginosa ATCC 27853
Escherichia coli [2] = assay: Antimicrobial activity against Escherichia coli 50
Enterococcus faecium = assay: Antimicrobial activity against vancomycin-resistant Enterococcus faecium
Streptococcus pneumoniae [3] = assay: Antimicrobial activity against erythromycin-susceptible Streptococcus pneumoniae ATCC 49619
Escherichia coli [4] = assay: Antimicrobial activity against Escherichia coli ATCC 25922
Staphylococcus aureus [5] = assay: Antimicrobial activity against Staphylococcus aureus Oxford
Escherichia coli [6] = assay: Antimicrobial activity against Escherichia coli 49
Staphylococcus aureus [7] = assay: Antimicrobial activity against methicillin-resistant Staphylococcus aureus
Staphylococcus aureus [8] = assay: Antimicrobial activity against methicillin-sensitive Staphylococcus aureus ATCC 13709
Haemophilus influenzae [9] = assay: Antimicrobial activity against LS2 Efflux knock-out Haemophilus influenzae
Streptococcus pneumoniae [10] = assay: Antimicrobial activity against penicillin- and erythromycin-resistant Streptococcus pneumoniae
Haemophilus influenzae [11] = assay: Antimicrobial activity against Haemophilus influenzae ATCC 31517 MMSA
Staphylococcus aureus [12] = assay: Antimicrobial activity against vancomycin-susceptible Staphylococcus aureus ATCC 25923
Enterococcus faecalis = assay: Antimicrobial activity against vancomycin-susceptible Enterococcus faecalis ATCC 29212

CCOC(=O)[C@]12CO[C@H](C(C)(C)C)N1C(=O)/C(=C(\C)NCCOc1ccccc1)C2=O
MIC (Streptococcus pneumoniae [1]): 2 µg/mL | MIC (Pseudomonas aeruginosa): > 32 µg/mL | MIC (Escherichia coli [2]): > 32 µg/mL | MIC (Enterococcus faecium): 8 µg/mL (≈ 18.6 µM) | MIC (Streptococcus pneumoniae [3]): 2 µg/mL (≈ 4.65 µM) | MIC (Escherichia coli [4]): > 32 µg/mL | MIC (Staphylococcus aureus [5]): > 64 µg/mL | MIC (Escherichia coli [6]): > 32 µg/mL | MIC (Staphylococcus aureus [7]): 64 µg/mL (≈ 149 µM) | MIC (Staphylococcus aureus [8]): 64 µg/mL (≈ 149 µM) | MIC (Haemophilus influenzae [9]): 32 µg/mL (≈ 74.3 µM) | MIC (Streptococcus pneumoniae [10]): 1 µg/mL (≈ 2.32 µM) | MIC (Haemophilus influenzae [11]): > 64 µg/mL | MIC (Staphylococcus aureus [12]): 64 µg/mL (≈ 149 µM) | MIC (Enterococcus faecalis): 64 µg/mL (≈ 149 µM)

C/C(NCCOc1ccccc1Cl)=C1/C(=O)CN(C(=O)OC(C)(C)C)C1=O
MIC (Streptococcus pneumoniae [1]): > 64 µg/mL | MIC (Pseudomonas aeruginosa): > 32 µg/mL | MIC (Escherichia coli [2]): > 32 µg/mL | MIC (Enterococcus faecium): > 64 µg/mL | MIC (Streptococcus pneumoniae [3]): > 64 µg/mL | MIC (Escherichia coli [4]): > 32 µg/mL | MIC (Staphylococcus aureus [5]): > 64 µg/mL | MIC (Escherichia coli [6]): > 32 µg/mL | MIC (Staphylococcus aureus [7]): > 64 µg/mL | MIC (Haemophilus influenzae [9]): 32 µg/mL (≈ 81 µM) | MIC (Streptococcus pneumoniae [10]): > 64 µg/mL | MIC (Haemophilus influenzae [11]): > 64 µg/mL | MIC (Staphylococcus aureus [12]): > 64 µg/mL | MIC (Enterococcus faecalis): > 64 µg/mL

CCCCCCCCCCC/C(NCCCOC(C)C)=C1\C(=O)CNC1=O
MIC (Streptococcus pneumoniae [1]): 32 µg/mL | MIC (Pseudomonas aeruginosa): > 32 µg/mL | MIC (Escherichia coli [2]): > 32 µg/mL | MIC (Enterococcus faecium): 8 µg/mL (≈ 21 µM) | MIC (Streptococcus pneumoniae [3]): 4 µg/mL (≈ 10.5 µM) | MIC (Escherichia coli [4]): > 32 µg/mL | MIC (Staphylococcus aureus [5]): 16 µg/mL (≈ 42 µM) | MIC (Escherichia coli [6]): > 32 µg/mL | MIC (Staphylococcus aureus [7]): 64 µg/mL (≈ 168 µM) | MIC (Staphylococcus aureus [8]): 16 µg/mL (≈ 42 µM) | MIC (Haemophilus influenzae [9]): 2 µg/mL (≈ 5.26 µM) | MIC (Streptococcus pneumoniae [10]): 4 µg/mL (≈ 10.5 µM) | MIC (Haemophilus influenzae [11]): > 64 µg/mL | MIC (Staphylococcus aureus [12]): > 64 µg/mL | MIC (Enterococcus faecalis): 16 µg/mL (≈ 42 µM)

CCCCCCCCCCCCC/C(NCCCN)=C1\C(=O)CN(CCCCCC)C1=O
MIC (Streptococcus pneumoniae [1]): 32 µg/mL | MIC (Pseudomonas aeruginosa): > 32 µg/mL | MIC (Escherichia coli [2]): > 32 µg/mL | MIC (Enterococcus faecium): 1 µg/mL (≈ 2.22 µM) | MIC (Streptococcus pneumoniae [3]): 2 µg/mL (≈ 4.45 µM) | MIC (Escherichia coli [4]): > 32 µg/mL | MIC (Staphylococcus aureus [5]): 4 µg/mL (≈ 8.89 µM) | MIC (Escherichia coli [6]): > 32 µg/mL | MIC (Staphylococcus aureus [7]): 4 µg/mL (≈ 8.89 µM) | MIC (Staphylococcus aureus [8]): 2 µg/mL (≈ 4.45 µM) | MIC (Haemophilus influenzae [9]): 32 µg/mL (≈ 71.2 µM) | MIC (Streptococcus pneumoniae [10]): 8 µg/mL (≈ 17.8 µM) | MIC (Haemophilus influenzae [11]): 64 µg/mL (≈ 142 µM) | MIC (Staphylococcus aureus [12]): 4 µg/mL (≈ 8.89 µM) | MIC (Enterococcus faecalis): 2 µg/mL (≈ 4.45 µM)

CCCCCCCCCCC/C(Nc1ccc(NC(=O)COCC(=O)O)cc1)=C1\C(=O)CN(CCCCCC)C1=O
MIC (Streptococcus pneumoniae [1]): > 64 µg/mL | MIC (Pseudomonas aeruginosa): > 32 µg/mL | MIC (Escherichia coli [2]): > 32 µg/mL | MIC (Enterococcus faecium): > 64 µg/mL | MIC (Streptococcus pneumoniae [3]): 2 µg/mL (≈ 3.5 µM) | MIC (Escherichia coli [4]): > 32 µg/mL | MIC (Staphylococcus aureus [5]): > 64 µg/mL | MIC (Escherichia coli [6]): > 32 µg/mL | MIC (Staphylococcus aureus [7]): > 64 µg/mL | MIC (Staphylococcus aureus [8]): > 64 µg/mL | MIC (Haemophilus influenzae [9]): > 64 µg/mL | MIC (Streptococcus pneumoniae [10]): 2 µg/mL (≈ 3.5 µM) | MIC (Haemophilus influenzae [11]): > 64 µg/mL | MIC (Staphylococcus aureus [12]): > 64 µg/mL | MIC (Enterococcus faecalis): > 64 µg/mL

CCCCCCN1CC(=O)/C(=C(/NC2CCCCC2)C2CCCCC2)C1=O
MIC (Streptococcus pneumoniae [1]): 64 µg/mL | MIC (Pseudomonas aeruginosa): > 32 µg/mL | MIC (Escherichia coli [2]): > 32 µg/mL | MIC (Enterococcus faecium): > 64 µg/mL | MIC (Streptococcus pneumoniae [3]): 2 µg/mL (≈ 5.34 µM) | MIC (Escherichia coli [4]): > 32 µg/mL | MIC (Staphylococcus aureus [5]): > 64 µg/mL | MIC (Escherichia coli [6]): > 32 µg/mL | MIC (Staphylococcus aureus [7]): > 64 µg/mL | MIC (Staphylococcus aureus [8]): > 64 µg/mL | MIC (Haemophilus influenzae [9]): > 64 µg/mL | MIC (Streptococcus pneumoniae [10]): 2 µg/mL (≈ 5.34 µM) | MIC (Haemophilus influenzae [11]): > 64 µg/mL | MIC (Staphylococcus aureus [12]): > 64 µg/mL | MIC (Enterococcus faecalis): > 64 µg/mL

CCCCC/C(NC(C)CCCN(CC)CC)=C1\C(=O)C(CCSC)N(C(=O)CC(C)CC(C)(C)C)C1=O (configuration not stated)
MIC (Streptococcus pneumoniae [1]): 8 µg/mL | MIC (Pseudomonas aeruginosa): > 32 µg/mL | MIC (Escherichia coli [2]): > 32 µg/mL | MIC (Enterococcus faecium): 8 µg/mL (≈ 14.5 µM) | MIC (Streptococcus pneumoniae [3]): 8 µg/mL (≈ 14.5 µM) | MIC (Escherichia coli [4]): > 32 µg/mL | MIC (Staphylococcus aureus [5]): 8 µg/mL (≈ 14.5 µM) | MIC (Escherichia coli [6]): > 32 µg/mL | MIC (Staphylococcus aureus [7]): 16 µg/mL (≈ 29 µM) | MIC (Staphylococcus aureus [8]): 16 µg/mL (≈ 29 µM) | MIC (Haemophilus influenzae [9]): 8 µg/mL (≈ 14.5 µM) | MIC (Streptococcus pneumoniae [10]): 4 µg/mL (≈ 7.25 µM) | MIC (Haemophilus influenzae [11]): > 64 µg/mL | MIC (Staphylococcus aureus [12]): 16 µg/mL (≈ 29 µM) | MIC (Enterococcus faecalis): 16 µg/mL (≈ 29 µM)

CCCCCCCCC/C(NC(C)CCCN(CC)CC)=C1/C(=O)N2[C@@H](C(C)(C)C)OC[C@]2(C(=O)OC)C1=O (some centres not stated)
MIC (Streptococcus pneumoniae [1]): 16 µg/mL | MIC (Pseudomonas aeruginosa): > 32 µg/mL | MIC (Escherichia coli [2]): > 32 µg/mL | MIC (Enterococcus faecium): 8 µg/mL (≈ 14.6 µM) | MIC (Streptococcus pneumoniae [3]): 4 µg/mL (≈ 7.28 µM) | MIC (Escherichia coli [4]): > 32 µg/mL | MIC (Staphylococcus aureus [5]): 16 µg/mL (≈ 29.1 µM) | MIC (Escherichia coli [6]): > 32 µg/mL | MIC (Staphylococcus aureus [7]): 16 µg/mL (≈ 29.1 µM) | MIC (Staphylococcus aureus [8]): 16 µg/mL (≈ 29.1 µM) | MIC (Haemophilus influenzae [9]): > 64 µg/mL | MIC (Streptococcus pneumoniae [10]): 4 µg/mL (≈ 7.28 µM) | MIC (Haemophilus influenzae [11]): > 64 µg/mL | MIC (Staphylococcus aureus [12]): 16 µg/mL (≈ 29.1 µM) | MIC (Enterococcus faecalis): 16 µg/mL (≈ 29.1 µM)

O=C(O)c1cn(C2CC2)c2cc(N3CCNCC3)c(F)cc2c1=O [CIPROFLOXACIN]
MIC (Streptococcus pneumoniae [1]): 1 µg/mL | MIC (Enterococcus faecium): 32 µg/mL (≈ 96.6 µM) | MIC (Streptococcus pneumoniae [3]): 1 µg/mL (≈ 3.02 µM) | MIC (Staphylococcus aureus [5]): 0.12 µg/mL (≈ 0.362 µM) | MIC (Staphylococcus aureus [8]): 0.12 µg/mL (≈ 0.362 µM) | MIC (Haemophilus influenzae [9]): ≤ 0.06 µg/mL | MIC (Streptococcus pneumoniae [10]): 1 µg/mL (≈ 3.02 µM) | MIC (Haemophilus influenzae [11]): 0.5 µg/mL (≈ 1.51 µM) | MIC (Staphylococcus aureus [12]): 0.5 µg/mL (≈ 1.51 µM) | MIC (Enterococcus faecalis): 1 µg/mL (≈ 3.02 µM)

CC(=O)NC[C@H]1CN(c2ccc(N3CCOCC3)c(F)c2)C(=O)O1 [LINEZOLID]
MIC (Enterococcus faecium): 2 µg/mL (≈ 5.93 µM) | MIC (Haemophilus influenzae [9]): 4 µg/mL (≈ 11.9 µM) | MIC (Haemophilus influenzae [11]): 16 µg/mL (≈ 47.4 µM)
